Structures can show the parent of a compound that is named as a salt.
What follows are molecules tested against human norepinephrine transporter (hNET) (Homo sapiens, UniProt P23975) (assay: hNET uptake, Protocol B: cell based norepinephrine reuptake assay using recombinant hNET (MDCK-Net6 cells)). Details: NE uptake (Protocol B) IC50 (nM), MDCK-Net6 cells, 3H-NE 16 nM.
Chain of human norepinephrine transporter (hNET) (P23975 whole entry): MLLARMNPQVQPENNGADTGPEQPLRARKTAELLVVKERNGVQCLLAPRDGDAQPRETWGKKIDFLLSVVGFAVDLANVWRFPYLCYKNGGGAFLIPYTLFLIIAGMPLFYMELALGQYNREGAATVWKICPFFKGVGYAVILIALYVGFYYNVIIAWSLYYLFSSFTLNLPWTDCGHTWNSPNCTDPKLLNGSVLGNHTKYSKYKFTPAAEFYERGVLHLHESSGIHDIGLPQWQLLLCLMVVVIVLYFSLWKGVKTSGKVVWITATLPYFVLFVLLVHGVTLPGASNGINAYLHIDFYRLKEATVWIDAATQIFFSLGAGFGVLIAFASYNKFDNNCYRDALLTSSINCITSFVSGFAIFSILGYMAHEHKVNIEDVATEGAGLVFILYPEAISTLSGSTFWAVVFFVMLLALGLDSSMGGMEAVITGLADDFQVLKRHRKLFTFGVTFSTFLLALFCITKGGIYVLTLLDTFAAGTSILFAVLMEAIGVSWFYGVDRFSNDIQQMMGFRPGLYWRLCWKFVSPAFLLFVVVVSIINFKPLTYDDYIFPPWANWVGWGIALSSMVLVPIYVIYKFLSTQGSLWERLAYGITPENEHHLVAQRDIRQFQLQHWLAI
In the case of O=S1(=O)N(CCNC2CCNCC2)c2ccccc2N1c1ccccc1 [Example 134, N-[2-(2,2-dioxido-3-phenyl-2,1,3-benzothiadiazol-1(3H)-yl)ethyl]piperidin-4-amine dihydrochloride], the IC50 is reported as 67 nM. CN(C)CCCCCCN1c2ccccc2N(c2ccccc2F)S1(=O)=O [Example 103, 6-[3-(2-fluorophenyl)-2,2-dioxido-2,1,3-benzothiadiazol-1(3H)-yl]-N,N-dimethylhexan-1-amine] was tested, and the IC50 was 1200 nM. CNCCCCN1c2ccccc2N(c2c(F)cccc2F)S1(=O)=O [Example 83, 4-[3-(2,6-Difluorophenyl)-2,2-dioxido-2,1,3-benzothiadiazol-1(3H)-yl]-N-methylbutan-1-amine hydrochloride] showed an IC50 of 2 nM. In the case of CNCCCN1c2ccccc2N(c2ccccn2)S1(=O)=O [Example 31, 3-(2,2-dioxido-3-pyridin-2-yl-2,1,3-benzothiadiazol-1(3H)-yl)-N-methylpropan-1-amine hydrochloride], the IC50 is reported as 23.6 nM. Work on Cc1cc(F)ccc1N1c2ccccc2N(CCCN)S1(=O)=O [Example 63, 3-[3-(4-fluoro-2-methylphenyl)-2,2-dioxido-2,1,3-benzothiadiazol-1(3H)-yl]propan-1-amine] yielded an IC50 of 324 nM. CNCCCN1c2ccccc2N(c2ccc(OC)cc2)S1(=O)=O [Example 7, 3-[3-(4-methoxyphenyl)-2,2-dioxido-2,1,3-benzothiadiazol-1(3H)-yl]-N-methylpropan-1-amine] showed an IC50 of 1780 nM. NCCCN1c2cccc(F)c2N(c2ccccc2F)S1(=O)=O [Example 74, 3-[4-fluoro-3-(2-fluorophenyl)-2,2-dioxido-2,1,3-benzothiadiazol-1(3H)-yl]propan-1-amine hydrochloride] showed an IC50 of 2.7 nM. CNCCCN1c2ccccc2N(c2ccc3ccccc3c2)S1(=O)=O [Example 14, N-methyl-3-[3-(2-naphthyl)-2,2-dioxido-2,1,3-benzothiadiazol-1(3H)-yl]propan-1-amine] showed an IC50 of 2620 nM. CNCCCN1c2ccccc2N(c2ccccc2)S1(=O)=O [Example 5, 3-(2,2-dioxido-3-phenyl-2,1,3-benzothiadiazol-1(3H)-yl)-N-methylpropan-1-amine] showed an IC50 of 2.63 nM. CNCCCN1c2ccccc2N(c2cccc(F)c2F)S1(=O)=O [Example 46, 3-[3-(2,3-difluorophenyl)-2,2-dioxido-2,1,3-benzothiadiazol-1(3H)-yl]-N-methylpropan-1-amine hydrochloride] was tested, and the IC50 was 4.84 nM. CN(C)CCCCCN1c2ccccc2N(c2ccccc2F)S1(=O)=O [Example 67, 5-[3-(2-fluorophenyl)-2,2-dioxido-2,1,3-benzothiadiazol-1(3H)-yl]-N,N-dimethylpentan-1-amine] was tested, and the IC50 was 298 nM. CNCCCCCN1c2ccccc2N(c2ccc(F)cc2Cl)S1(=O)=O [Example 89, 5-[3-(2-chloro-4-fluorophenyl)-2,2-dioxido-2,1,3-benzothiadiazol-1(3H)-yl]-N-methylpentan-1-amine hydrochloride] showed an IC50 of 2110 nM. In the case of NCCCCCN1c2ccccc2N(c2ccccc2F)S1(=O)=O [Example 65, 5-[3-(2-fluorophenyl)-2,2-dioxido-2,1,3-benzothiadiazol-1(3H)-yl]pentan-1-amine], the IC50 is reported as 14.1 nM. For CNCCCN1c2ccccc2N(c2ccc(C)cn2)S1(=O)=O [Example 26, N-methyl-3-[3-(5-methylpyridin-2-yl)-2,2-dioxido-2,1,3-benzothiadiazol-1(3H)-yl]propan-1-amine hydrochloride], the IC50 was 57.1 nM. CNCCCN1c2ccccc2N(c2cccc3ccccc23)S1(=O)=O [Example 13, N-methyl-3-[3-(1-naphthyl)-2,2-dioxido-2,1,3-benzothiadiazol-1(3H)-yl]propan-1-amine] gave an IC50 of 534 nM. Work on CNCCCN1c2cc(C)ccc2N(c2ccccc2)S1(=O)=O [Example 40, N-methyl-3-(6-methyl-2,2-dioxido-3-phenyl-2,1,3-benzothiadiazol-1(3H)-yl)propan-1-amine] yielded an IC50 of 252 nM. For CNCCCN1c2cc(Br)ccc2N(c2ccccc2)S1(=O)=O [Example 37, 3-(6-bromo-2,2-dioxido-3-phenyl-2,1,3-benzothiadiazol-1(3H)-yl)-N-methylpropan-1-amine], the IC50 was 2360 nM. CN(C)CCCCCN1c2ccccc2N(c2ccc(F)cc2F)S1(=O)=O [Example 117, 5-[3-(2,4-difluorophenyl)-2,2-dioxido-2,1,3-benzothiadiazol-1(3H)-yl]-N,N-dimethylpentan-1-amine hydrochloride] was tested, and the IC50 was 7190 nM. For O=S1(=O)N(CCCNC2CC2)c2ccccc2N1c1ccc(F)cc1F [Example 85, N-{3-[3-(2,4-Difluorophenyl)-2,2-dioxido-2,1,3-benzothiadiazol-1(3H)-yl]propyl}cyclopropanamine hydrochloride], the IC50 was 203 nM. With CNCCCCN1c2ccccc2N(c2ccc(O)cc2F)S1(=O)=O [Example 93, 3-fluoro-4-{3-[4-(methylamino)butyl]-2,2-dioxido-2,1,3-benzothiadiazol-1(3H)-yl}phenol hydrochloride] the IC50 was 3 nM. For CNCCCN1c2c(F)cccc2N(c2ccccc2F)S1(=O)=O [Example 76, 3-[7-fluoro-3-(2-fluorophenyl)-2,2-dioxido-2,1,3-benzothiadiazol-1(3H)-yl]-N-methylpropan-1-amine], the IC50 was 5.24 nM. CNCCCN1c2ccccc2N(c2cccc(C)n2)S1(=O)=O [Example 32, N-methyl-3-[3-(6-methylpyridin-2-yl)-2,2-dioxido-2,1,3-benzothiadiazol-1(3H)-yl]propan-1-amine hydrochloride] was tested, and the IC50 was 192 nM. CNCCCN1c2ccccc2N(c2ccc(F)cc2)S1(=O)=O [Example 6, 3-[3-(4-fluorophenyl)-2,2-dioxido-2,1,3-benzothiadiazol-1(3H)-yl]-N-methylpropan-1-amine] gave an IC50 of 6.87 nM. Molecule CNCCCN1c2ccc(C)cc2N(c2ccccc2)S1(=O)=O [Example 38, N-methyl-3-(5-methyl-2,2-dioxido-3-phenyl-2,1,3-benzothiadiazol-1(3H)-yl)propan-1-amine] has an IC50 of 13.9 nM. With CNCCCCN1c2ccccc2N(c2ccc(F)cc2)S1(=O)=O [Example 82, 4-[3-(4-Fluorophenyl)-2,2-dioxido-2,1,3-benzothiadiazol-1(3H)-yl]-N-methylbutan-1-amine hydrochloride] the IC50 was 46 nM. NCCCN1c2ccccc2N(c2ccc(F)cc2Cl)S1(=O)=O [Example 61, 3-[3-(2-Chloro-4-fluorophenyl)-2,2-dioxido-2,1,3-benzothiadiazol-1(3H)-yl]propan-1-amine hydrochloride] gave an IC50 of 113 nM. CNCCCCN1c2ccccc2N(c2ccccc2)S1(=O)=O [Example 18, 4-(2,2-dioxido-3-phenyl-2,1,3-benzothiadiazol-1(3H)-yl)-N-methylbutan-1-amine] showed an IC50 of 0.3 nM. Molecule Cc1ccc(N2c3ccccc3N(CCCCN(C)C)S2(=O)=O)c(F)c1 [Example 106, 4-[3-(2-fluoro-4-methylphenyl)-2,2-dioxido-2,1,3-benzothiadiazol-1(3H)-yl]-N,N-dimethylbutan-1-amine] has an IC50 of 591 nM. For CNCCCN1c2ccccc2N(c2ccc(Cl)cc2C)S1(=O)=O [Example 100, 3-[3-(4-chloro-2-methylphenyl)-2,2-dioxido-2,1,3-benzothiadiazol-1(3H)-yl]-N-methylpropan-1-amine], the IC50 was 370 nM. For CNCCCN1c2cccc(F)c2N(c2ccccc2)S1(=O)=O [Example 41, 3-(4-fluoro-2,2-dioxido-3-phenyl-2,1,3-benzothiadiazol-1(3H)-yl)-N-methylpropan-1-amine], the IC50 was 2.41 nM.

From patent US20080161366A1, “AMINOALKYL SUBSTITUTED ARYL SULFAMIDE DERIVATIVES AND METHODS OF THEIR USE” (Wyeth, priority 2006, published 2008)
